What was measured:
[1] = Biodistribution of 99mTc complexes in mice; format: in vivo, Balb/c mice
Source text: A series of derivatives incorporating carboxyl and phenolate donor groups (1-6) were synthesised by literature method and their radiolabelling characteristic and biological behaviour evaluated. Initial work involved an investigation of radiochemical properties of the ^99m Tc complexes of the ligands and their biodistribution in rats and mice (see Tables 1-6 and 8-12).
A typical method of radiolabelling of the chelator was achieved by dissolving the chelator in a basic solution of saline. The pH was then adjusted to approx. 6 with HCl. Excess stannous chloride was added to the resultant solution followed by one equivalent volume of sodium ^99m TcO4 (10-50 mCi/ml). Final concentration of the chelator was approx. 1 mg/ml. The efficacy of labelling was determined by ITLC-SG. For each product only one main radiochemical species was observed. Each complex was diluted to 15 μCi/100 μl with saline. […] (See FIGS. 1A and 1B).

[2] = Effect of pH on radiolabelling ligand (5) with 64/67Cu; format: physicochemical
Method: Radiolabelling with ^64/67 Cu was investigated with ligand (5) over a range of pHs (see Table B). Conditions employed are similar to that reported above for where the ^64/67 Cu in appropriate buffer was added directly to a buffered solution of ligand (5). Rate and percent of complexation was monitored over time by ITLC-SG. Mobile phase employed was methanol:water:ammonia (9:1: trace amounts). The copper complex moves with the solvent front while the free copper is retained at the origin.

[3] = Effect of pH on complexation of 99mTc with ligand (5); format: physicochemical
Method: Radiolabelling with ^99m Tc was investigated over a range of pHs (3.0-10.0) (described in Table B). To ligand (5) (1.0 ml:1 mg/ml) dissolved in appropriate buffer was added an excess of stannous chloride (20 μl:2 mg/ml) in 0.1 N HCl. To this mixture is added an appropriate activity of ^99m TcO4 (20 μl) eluted from a technetium generator.
All reactions were carried out at room temperature.
Percent complexation was monitored by ITLC-SG using two solvent systems. […]

## Nc1ccc(O)c(NC(=O)CN(CCN(CC(=O)O)CC(=O)Nc2cc(N)ccc2O)CC(=O)O)c1 [Compound 5]
[1]; 1 min
  biodistribution bone: 6.02 % Injected dose
  biodistribution kidney: 9.08 % Injected dose
  biodistribution liver: 5.72 % Injected dose
  biodistribution muscle: 23.78 % Injected dose
  biodistribution skin: 18.09 % Injected dose
  biodistribution spleen: 0.14 % Injected dose
  biodistribution urine: 0 % Injected dose
[1]; 3 min
  biodistribution kidney: 8.71 % Injected dose
  biodistribution liver: 5.04 % Injected dose
  biodistribution muscle: 15.39 % Injected dose
  biodistribution skin: 19.66 % Injected dose
  biodistribution spleen: 0.16 % Injected dose
  biodistribution urine: 2.97 % Injected dose
[1]; 5 min
  biodistribution kidney: 6.71 % Injected dose
  biodistribution liver: 4.34 % Injected dose
  biodistribution muscle: 11.74 % Injected dose
  biodistribution skin: 19.83 % Injected dose
  biodistribution spleen: 0.12 % Injected dose
  biodistribution urine: 6.52 % Injected dose
[1]; 10 min
  biodistribution kidney: 5.97 % Injected dose
  biodistribution liver: 5.34 % Injected dose
  biodistribution muscle: 9.67 % Injected dose
  biodistribution skin: 23.93 % Injected dose
  biodistribution spleen: 0.11 % Injected dose
  biodistribution urine: 10.66 % Injected dose
[1]; 30 min
  biodistribution kidney: 3.75 % Injected dose
  biodistribution liver: 2.86 % Injected dose
  biodistribution muscle: 23.84 % Injected dose
  biodistribution skin: 17.37 % Injected dose
  biodistribution spleen: 0.06 % Injected dose
  biodistribution urine: 5.91 % Injected dose
[2]; all pHs (pH 3.0-10.0)
  rate of complexation: complete within the first minute
[2]; pH 3.0-10.0
  complexation maintained for upto: ≤ 2 h
[3]; 99mTc, pH 10.0
  complexation: poor
  stability of product: unstable
[3]; 99mTc, pH range 3.0-9.0
  stability of final product (stable for upto): ≤ 2 h
[3]; 99mTc, room temperature
  optimum pH of complexation: 3.0-4.0 pH
[3]; pH 3, 1 min
  Percent 99mTc complexed: 89%
[3]; pH 3, 3 min
  Percent 99mTc complexed: 93%
[3]; pH 3, 5 min
  Percent 99mTc complexed: 90%
[3]; pH 3, 10 min
  Percent 99mTc complexed: 91%
[3]; pH 3, 15 min
  Percent 99mTc complexed: 90%
[3]; pH 3, 30 min
  Percent 99mTc complexed: 92%
[3]; pH 3, 1 h
  Percent 99mTc complexed: 92%
[3]; pH 3, 2 h
  Percent 99mTc complexed: 94%
[3]; pH 4, 1 min
  Percent 99mTc complexed: 94%
[3]; pH 4, 3 min
  Percent 99mTc complexed: 97%
[3]; pH 4, 5 min
  Percent 99mTc complexed: 92%
[3]; pH 4, 10 min
  Percent 99mTc complexed: 94%
[3]; pH 4, 15 min
  Percent 99mTc complexed: 96%
[3]; pH 4, 30 min
  Percent 99mTc complexed: 91%
[3]; pH 4, 1 h
  Percent 99mTc complexed: 100%
[3]; pH 4, 2 h
  Percent 99mTc complexed: 100%
[3]; pH 5, 1 min
  Percent 99mTc complexed: 84%
[3]; pH 5, 3 min
  Percent 99mTc complexed: 83%
[3]; pH 5, 5 min
  Percent 99mTc complexed: 91%
[3]; pH 5, 10 min
  Percent 99mTc complexed: 83%
[3]; pH 5, 15 min
  Percent 99mTc complexed: 81%
[3]; pH 5, 30 min
  Percent 99mTc complexed: 71%
[3]; pH 5, 1 h
  Percent 99mTc complexed: 85%
[3]; pH 5, 2 h
  Percent 99mTc complexed: 88%
[3]; pH 6, 1 min
  Percent 99mTc complexed: 80%
[3]; pH 6, 3 min
  Percent 99mTc complexed: 80%
[3]; pH 6, 5 min
  Percent 99mTc complexed: 83%
[3]; pH 6, 10 min
  Percent 99mTc complexed: 80%
[3]; pH 6, 15 min
  Percent 99mTc complexed: 82%
[3]; pH 6, 30 min
  Percent 99mTc complexed: 90%
[3]; pH 6, 1 h
  Percent 99mTc complexed: 85%
[3]; pH 6, 2 h
  Percent 99mTc complexed: 91%
[3]; pH 7, 1 min
  Percent 99mTc complexed: 73%
[3]; pH 7, 3 min
  Percent 99mTc complexed: 83%
[3]; pH 7, 5 min
  Percent 99mTc complexed: 81%
[3]; pH 7, 10 min
  Percent 99mTc complexed: 74%
[3]; pH 7, 15 min
  Percent 99mTc complexed: 87%
[3]; pH 7, 30 min
  Percent 99mTc complexed: 80%
[3]; pH 7, 1 h
  Percent 99mTc complexed: 83%
[3]; pH 7, 2 h
  Percent 99mTc complexed: 52%
[3]; pH 8, 1 min
  Percent 99mTc complexed: 76%
[3]; pH 8, 3 min
  Percent 99mTc complexed: 88%
[3]; pH 8, 5 min
  Percent 99mTc complexed: 81%
[3]; pH 8, 10 min
  Percent 99mTc complexed: 83%
[3]; pH 8, 15 min
  Percent 99mTc complexed: 87%
[3]; pH 8, 30 min
  Percent 99mTc complexed: 85%
[3]; pH 8, 1 h
  Percent 99mTc complexed: 77%
[3]; pH 8, 2 h
  Percent 99mTc complexed: 81%
[3]; pH 9, 1 min
  Percent 99mTc complexed: 90%
[3]; pH 9, 3 min
  Percent 99mTc complexed: 100%
[3]; pH 9, 5 min
  Percent 99mTc complexed: 94%
[3]; pH 9, 10 min
  Percent 99mTc complexed: 86%
[3]; pH 9, 15 min
  Percent 99mTc complexed: 100%
[3]; pH 9, 30 min
  Percent 99mTc complexed: 83%
[3]; pH 9, 1 h
  Percent 99mTc complexed: 85%
[3]; pH 9, 2 h
  Percent 99mTc complexed: 74%
[3]; pH 10, 1 min
  Percent 99mTc complexed: 15%
[3]; pH 10, 3 min
  Percent 99mTc complexed: 16%
[3]; pH 10, 5 min
  Percent 99mTc complexed: 11%
[3]; pH 10, 10 min
  Percent 99mTc complexed: 13%
[3]; pH 10, 15 min
  Percent 99mTc complexed: 9%
[3]; pH 10, 1 h
  Percent 99mTc complexed: 8%
[3]; pH 10, 2 h
  Percent 99mTc complexed: 8%

From patent US5807535A, “Metal complexes of hydroxyaryl containing aminocarboxylic acid chelating agents” (Australian Nuclear Science & Technology Organisation, priority 1992, dated 1998)
